The subject of one assay is Haemonchus contortus L3. Description: microbe, parasite or virus in culture. In kind it is cell-based. Conditions: Haemonchus contortus, 96 h, read-out: HcL3 Minimal Effective Concentration (MEC).
For another assay, the system named is D. immitis microfilariae. Description: Dirofilaria immitis, microfilariae (DiMF) in vitro motility assay. In kind it is cell-based. Conditions: Dirofilaria immitis, 72 h, read-out: DiMF minimally effective dose (MEC).

SMILES strings stand for the structures. A value given as a limit tells only on which side of the number the result lay.

This passage reports minimal effective concentration results from patent US10570129B2 (Zoetis Services LLC, priority 2015, dated 2020).

As for `N#Cc1ccc(/C=C/CN2CCc3c(c4c(Br)cccc4n3C(=O)NCc3ccnc(Cl)c3)C2)cc1` [Example 442, (E)-9-bromo-N-((2-chloropyridin-4-yl)methyl)-2-(3-(4-cyanophenyl)allyl)-1,2,3,4-tetrahydro-5H-pyrido[4,3-b]indole-5-carboxamide], the minimal effective concentration in the assay with Haemonchus contortus L3 and in the assay on D. immitis microfilariae was 10 µM in each case.

As for `O=C(NCc1ccnc(Cl)c1)n1c2c(c3cc(Br)ccc31)CN(C/C=C/c1ccc(F)c(Cl)c1)CC2` [Example 182, (E)-8-bromo-2-(3-(3-chloro-4-fluorophenyl)allyl)-N-((2-chloropyridin-4-yl)methyl)-1,2,3,4-tetrahydro-5H-pyrido[4,3-b]indole-5-carboxamide], the minimal effective concentration was 1 µM in the assay on Haemonchus contortus L3 and greater than 100 µM with D. immitis microfilariae.

For `N#Cc1ccc2c(c1)c1c(n2C(=O)NCc2ccnc(F)c2)CCN(C/C=C/c2cc(Br)cs2)C1` [Example 126, (E)-2-(3-(4-bromothiophen-2-yl)allyl)-8-cyano-N-((2-fluoropyridin-4-yl)methyl)-1,2,3,4-tetrahydro-5H-pyrido[4,3-b]indole-5-carboxamide], the minimal effective concentration in the assay on Haemonchus contortus L3 and in the assay with D. immitis microfilariae was greater than 100 µM in each case.

`O=C(NCc1ccnc(Cl)c1)n1c2c(c3ccc(OC(F)(F)F)cc31)CN(C/C=C/c1ccc(Cl)c(F)c1)CC2` [Example 336, (E)-2-(3-(4-chloro-3-fluorophenyl)allyl)-N-((2-chloropyridin-4-yl)methyl)-7-(trifluoromethoxy)-1,2,3,4-tetrahydro-5H-pyrido[4,3-b]indole-5-carboxamide]: the minimal effective concentration in the assay on Haemonchus contortus L3 turned out to be 1 µM; with D. immitis microfilariae, 33 µM.

Consider `O=C(NCc1ccnc(Cl)c1)n1c2c(c3cc(Cl)c(Cl)cc31)CN(C/C=C/c1ccc(F)c(F)c1)CC2` [Example 278, (E)-7,8-dichloro-N-((2-chloropyridin-4-yl)methyl)-2-(3-(3,4-difluorophenyl)allyl)-1,2,3,4-tetrahydro-5H-pyrido[4,3-b]indole-5-carboxamide], for which the values for the minimal effective concentration with Haemonchus contortus L3 and in the assay with D. immitis microfilariae were 1.8 µM and 18.2 µM, respectively.

Regarding `O=C(NCc1ccnc(F)c1)n1c2c(c3cc(OC(F)(F)F)ccc31)CN(C/C=C/c1ccc(F)c(F)c1)CC2` [Example 405, (E)-2-(3-(3,4-difluorophenyl)allyl)-N-((2-fluoropyridin-4-yl)methyl)-8-(trifluoromethoxy)-1,2,3,4-tetrahydro-5H-pyrido[4,3-b]indole-5-carboxamide], the minimal effective concentration with Haemonchus contortus L3 amounted to 0.3 µM; in the assay with D. immitis microfilariae it was 5.7 µM.

`N#Cc1ccc2c3c(n(C(=O)NCc4ccnc(Cl)c4)c2c1)CCN(C/C=C/c1ccc(F)cc1Cl)C3` [Example 24, (E)-2-(3-(2-chloro-4-fluorophenyl)allyl)-N-((2-chloropyridin-4-yl)methyl)-7-cyano-1,2,3,4-tetrahydro-5H-pyrido[4,3-b]indole-5-carboxamide]: the minimal effective concentration was 5.7 µM in the assay with Haemonchus contortus L3 and 7.6 µM with D. immitis microfilariae.

As for `O=C(NCc1ccnc(Cl)c1)n1c2c(c3cc(C(F)(F)F)ccc31)CN(C/C=C/c1ccc(Cl)c(Cl)c1)CC2` [Example 333, (E)-N-((2-chloropyridin-4-yl)methyl)-2-(3-(3,4-dichlorophenyl)allyl)-8-(trifluoromethyl)-1,2,3,4-tetrahydro-5H-pyrido[4,3-b]indole-5-carboxamide], the results for the minimal effective concentration in the assay with Haemonchus contortus L3 and in the assay with D. immitis microfilariae were 1.8 µM and greater than 100 µM, respectively.

Take `N#Cc1cccc2c1c1c(n2C(=O)NCc2ccnc(Cl)c2)CCN(C/C=C/c2ccc(F)cc2Cl)C1` [Example 25, (E)-2-(3-(2-chloro-4-fluorophenyl)allyl)-N-((2-chloropyridin-4-yl)methyl)-9-cyano-1,2,3,4-tetrahydro-5H-pyrido[4,3-b]indole-5-carboxamide]: the minimal effective concentration was greater than 100 µM in the assay on Haemonchus contortus L3 and 33 µM in the assay with D. immitis microfilariae.
